Experimental data: US9434687B2, “Detection of synthetic cannabinoids” (priority 2011, dated 2016)

Experiments:
Type in all cases: binding, sheep
[1] = test system: antibodies raised to Immunogens I & II; assay: Competitive ELISA, selected molecules as potential cross-reactants (Table 3); settings: for % CR / IC50: Table 3, standard conc 750.00 ng/ml
Experimental: (a) The wells of an enhanced binding 96 well polystyrene microtiter plate were coated with the Ig fraction of the antiserum raised to Immunogen I (Hapten A-BTG—example 5) and diluted in 10 mM Tris, pH8.5 (125 μl/well). The appropriate antibody coating concentration was determined using standard ELISA checkerboard techniques. The plate was incubated for 2 hours at 37° C., washed 4 times over a 10-minute period with Tris buffered saline containing Tween 20 (TBST) and tapped dry. Standard solutions of JWH synthetic cannabinoids, metabolites and selected molecules were prepared in TBST and 50 μl of each was added to the appropriate wells. 75 μl of conjugate (Hapten A-HRP) diluted in Tris buffer containing EDTA, D-mannitol, sucrose, thimerosal and BSA, was added to each of the wells. The appropriate dilution of conjugate was also determined using standard ELISA checkerboard techniques. The plate was incubated at 25° C. for 1 hour. The excess unbound conjugate was removed by washing 6 times over a 10-minute period with TBST and tapped dry. 125 μl of tetramethylbenzedine (TMB) substrate solution was added to each well of the plate that was then incubated for 15-20 minutes in the dark at room temperature. The reaction was terminated by addition of 125 μl of 0.2M sulphuric acid to each well. The absorbance was then measured at 450 nm using a microtiter plate reader.
Employing each series of standards, calibration curves were generated and these were used to determine the specificity of the immunoassay for the JWH synthetic cannabinoids, metabolites and selected molecules. The results of this study are presented in Tables 1 to 3, cross-reactivity being calculated according to the following formula: % CR=IC50,JWH-018/IC50,CR×100
Where % CR is the percentage cross-reactivity, IC50, JWH-018 is the concentration of JWH-018 that causes 50% displacement of signal and IC50, CR is the concentration of JWH synthetic cannabinoid/metabolite/selected molecule that causes 50% displacement of signal.
The antibody produced from Immunogen I is able to bind to JWH molecules known to be incorporated in herbal therapeutics such as JWH-018, proposed metabolites such as M2 (Wintermeyer et al 2010), and potential metabolites such as M5. The detection and quantification of other JWH SSCs is also provided for, the antibodies of the invention bind a range of molecules comprising the 3-(1-naphthoyl)-1H-indole structure (e.g. JWH-071, JWH-398, M1 etc.). […] The concept of using the antibodies of the invention to detect and determine future stealth synthetic cannabinoids is highlighted in Table 4; the 5-fluoropentyl derivative known to bind the CB 1 receptor, but which as of yet has not been detected in herbal therapeutics or similar substances, binds to antibodies raised from Immunogens I and II.

[2] = test system: IgG fraction of antiserum raised to Immunogen VII; settings: Antibody to Immunogen VII; cross-reactants at 100 ng/ml; 1000 ng/ml; standard JWH-015
[3] = test system: IgG fraction of antiserum raised to Immunogen IV; settings: Antibody to Immunogen IV; cross-reactants at 100 ng/ml; 1000 ng/ml; standard JWH-018
[4] = test system: IgG fraction of antiserum raised to Immunogen VIII; settings: Antibody to Immunogen VIII; cross-reactants at 100 ng/ml; 1000 ng/ml; standard JWH-018
[5] = test system: IgG fraction of antiserum raised to Immunogen I; settings: Antibody to Immunogen I; cross-reactants at 100 ng/ml; 1000 ng/ml; standard JWH-018
Procedure, shortened: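 Plates were coated with the IgG fraction of sheep antiserum raised to Immunogen I and incubated with standards (JWH-018, 0-40 ng/ml) plus hapten-HRP conjugate for 1 h at 25° C. Detection used TMB, read at 450 nm. IC50 was taken from a 4-parameter fit as the concentration giving half the zero-standard OD.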

Row | SMILES | binding / cross-reaction with antibodies raised from Immunogens I and II (in words) [1] | % CR [1] [%] | IC50 [1] [µg/mL] | % B/B0 [2] [%] | % B/B0 [3] [%] | % B/B0 [4] [%] | % B/B0 [5] [%]
1 | O=C(O)c1c[nH]c2ccccc12 [Indole-3-carboxylic Acid] | do not cross-react | <0.28 | >0.75 | 96.90 | 93.42 | 96.28 | 101.26
2 | CCCCCCC(C)(C)c1ccc([C@H]2CCC[C@@H](O)C2)c(O)c1 [CP-49,497-C7] |  | <0.28 | >0.75 | 94.23 | 96.84 | 86.95 | 101.20
3 | CCCCCc1cc(O)c2c(c1)OC(C)(C)c1ccc(C)cc1-2 [Cannabinol] |  | <0.28 | >0.75 | 95.43 | 94.74 | 94.03 | 86.60
4 | CCCCCc1cc(O)c2c(c1)OC(C)(C)[C@@H]1CCC(C)=C[C@@H]21 [Delta 9 THC] |  | <0.28 | >0.75 | 96.76 | 93.62 | 96.10 | 102.66
5 | OCCc1c[nH]c2ccc(O)cc12 [5-hydroxytryptophol] |  | <0.28 | >0.75 | 98.45 | 94.51 | 102.93 | 93.30
